Assay: molar heat capacity at saturation pressure
Conditions: Vacuum adiabatic calorimetry

CCCCCCCCCC(=O)OCC [ethyl decanoate]
Conditions	molar heat capacity [J/K/mol]
204.7 K, Crystal	251.8
205.19 K, Crystal	252
205.24 K, Crystal	252.1
205.57 K, Crystal	252.3
206.25 K, Crystal	253.2
206.66 K, Crystal	253.6
207.14 K, Crystal	254
207.19 K, Crystal	254
207.62 K, Crystal	254.3
208.2 K, Crystal	255.2
208.63 K, Crystal	255.4
209.09 K, Crystal	255.7
209.14 K, Crystal	255.7
209.67 K, Crystal	256.4
210.15 K, Crystal	257
210.59 K, Crystal	257.3
211.04 K, Crystal	257.6
211.09 K, Crystal	257.8
211.71 K, Crystal	258.4
212.1 K, Crystal	259
212.56 K, Crystal	259.1
212.98 K, Crystal	259.7
213.04 K, Crystal	259.7
213.75 K, Crystal	260.3
214.05 K, Crystal	261
214.52 K, Crystal	261.2
214.93 K, Crystal	261.7
214.99 K, Crystal	261.6
215.78 K, Crystal	262.5
215.99 K, Crystal	263.2
216.49 K, Crystal	263.3
216.87 K, Crystal	263.9
216.93 K, Crystal	263.7
217.81 K, Crystal	264.8
217.93 K, Crystal	265.3
218.46 K, Crystal	265.4
218.81 K, Crystal	266.1
218.87 K, Crystal	265.9
219.84 K, Crystal	267.1
219.87 K, Crystal	267.5
220.42 K, Crystal	267.6
220.75 K, Crystal	268.4
220.81 K, Crystal	268.3
221.82 K, Crystal	269.7
221.86 K, Crystal	269.6
222.39 K, Crystal	270
222.68 K, Crystal	270.8
222.75 K, Crystal	270.5
223.76 K, Crystal	272.3
223.88 K, Crystal	272.1
224.36 K, Crystal	272.5
224.61 K, Crystal	273.3
224.69 K, Crystal	272.9
225.69 K, Crystal	274.9
225.89 K, Crystal	274.9
226.33 K, Crystal	275.1
226.54 K, Crystal	276.1
226.62 K, Crystal	275.6
227.62 K, Crystal	277.6
227.9 K, Crystal	277.8
228.29 K, Crystal	277.8
228.46 K, Crystal	278.4
228.54 K, Crystal	278.3
229.55 K, Crystal	280.1
229.89 K, Crystal	280.6
230.26 K, Crystal	280.8
230.47 K, Crystal	280.9
232.23 K, Crystal	284
232.58 K, Crystal	284.3
234.19 K, Crystal	287.3
234.97 K, Crystal	289
236.16 K, Crystal	291.1
237.29 K, Crystal	294.1
238.11 K, Crystal	296.8
239.59 K, Crystal	301
240.07 K, Crystal	303
241.85 K, Crystal	310.4
244.07 K, Crystal	325.4
246.21 K, Crystal	353.6
254.4 K, Liquid	386.7
255.37 K, Liquid	387
256.65 K, Liquid	387.2
257.1 K, Liquid	387.4
257.94 K, Liquid	387.5
258.76 K, Liquid	387.7
259.18 K, Liquid	387.9
260.12 K, Liquid	388.2
260.59 K, Liquid	388.3
261.71 K, Liquid	388.7
262.29 K, Liquid	388.9
262.56 K, Liquid	388.9
264.24 K, Liquid	389.3
264.47 K, Liquid	389.5
264.54 K, Liquid	389.4
266.52 K, Liquid	390
266.65 K, Liquid	390.1
266.77 K, Liquid	390.1
268.5 K, Liquid	390.8
268.83 K, Liquid	390.8
269.31 K, Liquid	391
270.48 K, Liquid	391.6
271.01 K, Liquid	391.6
271.84 K, Liquid	391.9
272.46 K, Liquid	392.3
273.19 K, Liquid	392.4
274.38 K, Liquid	392.9
274.44 K, Liquid	393
275.37 K, Liquid	393.2
276.42 K, Liquid	393.8
276.91 K, Liquid	394
277.55 K, Liquid	394.1
278.4 K, Liquid	394.5
279.45 K, Liquid	394.9
279.73 K, Liquid	394.9
280.38 K, Liquid	395.3
281.91 K, Liquid	396
281.98 K, Liquid	396.1
282.36 K, Liquid	396.2
284.09 K, Liquid	396.8
284.34 K, Liquid	397.1
284.52 K, Liquid	397.2
286.27 K, Liquid	397.8
286.32 K, Liquid	397.8
287.05 K, Liquid	398.3
288.3 K, Liquid	398.7
288.45 K, Liquid	398.8
289.59 K, Liquid	399.4
290.28 K, Liquid	399.7
290.63 K, Liquid	399.9
292.13 K, Liquid	400.5
292.26 K, Liquid	400.7
292.81 K, Liquid	401
294.23 K, Liquid	401.6
294.66 K, Liquid	401.8
294.99 K, Liquid	401.9
296.21 K, Liquid	402.5
297.17 K, Liquid	403.1
297.19 K, Liquid	403
298.19 K, Liquid	403.4
299.72 K, Liquid	404.3
300.16 K, Liquid	404.4
302.14 K, Liquid	405.5
302.25 K, Liquid	405.6
304.12 K, Liquid	406.5
304.78 K, Liquid	406.9
306.09 K, Liquid	407.7
307.31 K, Liquid	408.3
308.07 K, Liquid	408.7
309.83 K, Liquid	409.6
310.05 K, Liquid	409.6
312.02 K, Liquid	410.7
312.36 K, Liquid	411
314 K, Liquid	411.8
314.88 K, Liquid	412.3
315.98 K, Liquid	412.8
317.41 K, Liquid	413.8
317.96 K, Liquid	414
319.93 K, Liquid	415
319.94 K, Liquid	415
321.92 K, Liquid	416.3
322.45 K, Liquid	416.4
323.9 K, Liquid	417.2
324.96 K, Liquid	417.7
325.88 K, Liquid	418.2
327.48 K, Liquid	419.3
327.86 K, Liquid	419.2
329.84 K, Liquid	420.3
330 K, Liquid	420.6
331.82 K, Liquid	421.5
332.51 K, Liquid	422
333.8 K, Liquid	422.7
335.02 K, Liquid	423.5
335.78 K, Liquid	424
337.54 K, Liquid	424.9
337.76 K, Liquid	425.1
339.74 K, Liquid	426.2
340.05 K, Liquid	426.4
341.72 K, Liquid	427.3
342.56 K, Liquid	428
343.7 K, Liquid	428.7
345.06 K, Liquid	429.5
345.68 K, Liquid	429.8
347.57 K, Liquid	430.9
347.66 K, Liquid	431
349.64 K, Liquid	432.2
350.07 K, Liquid	432.4
351.62 K, Liquid	433.3
352.57 K, Liquid	433.9
353.61 K, Liquid	434.3
355.06 K, Liquid	435.2
355.59 K, Liquid	435.6
357.56 K, Liquid	436.8
357.57 K, Liquid	436.8
359.55 K, Liquid	438
360.05 K, Liquid	438.2
362.54 K, Liquid	439.8
365.03 K, Liquid	441.4
367.52 K, Liquid	443

Reference: the NIST ThermoML archive (doi:10.1021/je900093h)
